From paper PMC4560162, “Discovery of small molecule inhibitors of xyloglucan endotransglucosylase (XET) activity by high-throughput screening” (Phytochemistry, 2015)
“And” between values parts separate entries of the source, which are not always exact repeats. Equal values may be shown once. Read-outs that look alike come from different tables or passages of the source. Each block holds one compound with its values, some of them ahead of it.

Assays:
parsley XET activity = test: Radiochemical XET assay (soluble xyloglucan + [3H]XXXGol); assay type: biochemical; settings: for effect on XET activity, first radiochemical re-screen of EDI hits: most xenobiotics at 200 μg/ml (≈200–800 μM); for effect on XET activity, radiochemical re-screen of 206 compounds (mostly LATCA): LATCA approx. 25 μM, EDI approx. 200 μg/ml, listed in order of decreasing effectiveness; for IC50: read-out: IC50 (concentration required for 50% inhibition of XET activity), radiochemical assay, 20 °C; for IC50 / effect on XET activity in radiochemical assays (as summarised in the discussion): soluble xyloglucan, laboratory light; for effect on XET activity in radiochemical assays (as summarised in the discussion): free solution
Description: The parsley enzyme concentration was held constant, and the xenobiotics were tested at 200, 160, 120, 80, 40, 20, 10 and 0 μg/ml (concentrations in the final reaction mixture). Other details were as above.
The riboflavin-free controls received the same DMSO concentration.

[1] = tested on: nine other cell-wall enzyme activities; test: Dot-blot assays for nine additional wall enzyme activities; assay type: biochemical, parsley and lucerne (alfalfa); settings: xenobiotic 200 mg/l
Description: Radiolabelled oligosaccharide ([1-^3H]Gal12-ol or [1-^3H]Xyl6-ol; 1 kBq; containing a trace of Orange G) was dried into each well of a 96-well plate. […] The mixture was incubated for 24 h (for Gal12-ol) or 48 h (for Xyl6-ol), then the 5-μl reaction mixture was dried onto each position on a piece of plain Whatman No. 1 paper in 96-well format. Visual inspection of the Orange G verified that the samples had been correctly applied to the paper. […] Thus, in this assay, radioactive spots reveal inhibition of the enzyme.

[2] = tested on: Zea cell-suspension cultures; test: Cell expansion (SCV, PCV) in Zea cell-suspension culture; assay type: cell-based, Zea mays; settings: for concentration inhibiting growth (PCV) without membrane impairment: Zea, 4 d incubation
Description: (§1) Cell-suspension cultures of “Paul’s Scarlet” rose [a complex hybrid; genus Rosa; isolated in October 1957 from sections of young stem material; [Nickell and Tulecke, 1959]) and maize (Zea mays L., Black Mexican Sweetcorn, donated by Dr. I. Moore, Department of Botany, University of Edinburgh) were grown under constant dim illumination (10 μmol m^−2 s^−1) on an orbital shaker at 25 °C. Rose cells were maintained as described by [Chormova et al. (2014)] and maize cells as described by [Kerr and Fry (2003)].
(§2) Eight xenobiotics that inhibited XET activity were selected for biological testing. Mini-cultures [2 ml, 5% (v/v) SCV; transferred from a standard culture 7 d after sub-culturing] were incubated in 12-well tissue culture microplates with the lids closed loosely. Xenobiotics were added as concentrated stocks in DMSO (final DMSO concentration 2%), and incubation was continued aseptically under standard conditions of temperature, lighting and shaking. After 4 d, 1 kBq of [^14C]proline was added per mini-culture. A small volume of medium (50 μl) was sampled 2 and 4 h after [^14C]proline addition and assayed for remaining extracellular ^14C. The culture was brought up to 10 ml with water and the settled and packed cell volumes (SCV, PCV) were then measured ([Fry and Street, 1980]). Most of the culture medium was then removed and the cells were finally killed by addition of 0.5 ml of 6% SDS. After 0.5 h at 100 °C, a 100-μl aliquot of the centrifuged SDS-extract was dried onto Whatman No. 3 paper, which was then washed in 75% ethanol supplemented with 0.5% acetic acid, thus removing free [^14C]proline and its low-Mr metabolites if any; radioactivity remaining on the paper ([^14C]protein) was then assayed.

[3] = tested on: Rosa cell-suspension cultures; test: Membrane function ([14C]proline uptake) in Rosa culture; assay type: cell-based, Rosa ("Paul's Scarlet" rose); settings: 4 d after xenobiotic
Description: Before testing the effects of XET-inhibitors on cell expansion, we defined their non-toxic concentrations. The eight XET-inhibiting xenobiotics mentioned in §2.7 were tested for cytotoxicity in cultured Rosa and Zea cells, by simple tests of the compounds’ ability to inhibit membrane and ribosome function based on [^14C]proline uptake and incorporation. In xenobiotic-free control 4-d-old Rosa cultures, 93.3% and 94.3% of the supplied [^14C]proline was absorbed from the medium within 2 and 4 h respectively, indicating healthy membrane function. In xenobiotic-free 4-d-old Zea cultures, the corresponding figures were 93.9% and 92.5%. By 4 h, 5.5% of the total [^14C]proline supplied had been incorporated into protein by Rosa and 9.3% by Zea cells, indicating healthy ribosome function. Against these control rates, we recorded any inhibition of membrane and ribosome function by the xenobiotics (Fig. 8). Each xenobiotic was tested at two concentrations (¼ and ^1/20 of the lowest non-tolerated concentration), which had been selected on the basis of preliminary experiments with a dilution series of the xenobiotic.
as §2, with “A small volume of medium (50 μl) was sampled 2 and 4 h after [^14C]proline addition and assayed for remaining extracellular ^14C.” left out, “Most of the culture medium was then removed and the cells were finally killed by addition of 0.5 ml of 6% SDS.” left out

[4] = tested on: Zea cell-suspension cultures; test: Membrane function ([14C]proline uptake) in Zea culture; assay type: cell-based, Zea mays; settings: 4 d after xenobiotic
[5] = tested on: Petroselinum xyloglucan endotransglucosylase (XET) activity; test: Fluorescent dot-blot XET screen (cellulose-bound xyloglucan + XGO–SR on paper, in the dark); assay type: biochemical, parsley; settings: for effect on XET activity in dot-blot (inhibition / promotion): EDI 0.4 mg/ml, LATCA 50 μM, 2 h, dark, cellulose-bound xyloglucan
Description: For inhibitor screening, 53 new 96-well plates were set up with 50 μl of parsley enzyme extract per well, and 1 μl of DMSO-solubilised xenobiotic was added to each well, giving concentrations of 0.4 mg/ml (EDI collection, with exceptions noted in Table S2) or 50 μM (LATCA collection) and 2% v/v DMSO.
XET test-paper was prepared as before ([Fry, 1997]) and 112 × 75-mm sheets were attached to cellulose acetate overhead-projector sheets with ‘Spraymount’ adhesive. Each sheet was placed on a pre-cooled glass plate in a cold room at 4 °C.
For inhibitor screening (Fig. 2), 4 μl of a parsley enzyme/xenobiotic mixture was applied to each position on a sheet. Incubation at 20 °C for 2 h, washing, drying and photography were conducted essentially as above.

[6] = tested on: Rosa cell-suspension cultures; test: Cell expansion (SCV, PCV) in Rosa cell-suspension culture; assay type: cell-based, Rosa ("Paul's Scarlet" rose); settings: for concentration inhibiting growth (PCV) without membrane impairment: Rosa, 4 d incubation
Description: as §1, §2

[7] = molecular target: cyclic-AMP-dependent protein kinase, PKA; parameters: method as in Losiewicz et al., 1994; settings: ref Losiewicz et al., 1994; cited from earlier work

membrane function ([3]; higher tested concentration): impaired
membrane function ([4]; higher tested concentration): impaired
Compound: CCOc1ccc(Nc2ccc(/C(=C3C=C/C(=[N+](/CC)Cc4cccc(S(=O)(=O)[O-])c4)C=C/3C)c3ccc(N(CC)Cc4cccc(S(=O)(=O)O)c4)cc3C)cc2)cc1 [brilliant blue G]
effect on XET activity, first radiochemical re-screen of EDI hits (parsley XET activity): inhibitory
number of the nine other wall enzyme activities inhibited [1]: three
concentration inhibiting growth (PCV) without membrane impairment [2]: 100 µM

IC50 (parsley XET activity; 2 h): 29 µM and ~30 µM
membrane function ([4]; at the concentrations tested): impaired
Compound: Cc1cc2nc3c(=O)[nH]c(=O)nc-3n(C[C@H](O)[C@H](O)[C@H](O)CO)c2cc1C [riboflavin]
[3H]Xyloglucan formed, Low light (parsley XET activity; 0.5 mM riboflavin, 0.2 lux, 2 h, control without riboflavin 8861 ± 105, mean ± SE of 4): 5390 ± 130 cpm
[3H]Xyloglucan formed, High light (parsley XET activity; 0.5 mM riboflavin, 1100 lux, 2 h, control without riboflavin 8942 ± 349, mean ± SE of 4): 807 ± 63 cpm
effect on XET activity, radiochemical re-screen of 206 compounds (mostly LATCA) (parsley XET activity): inhibition
number of the nine other wall enzyme activities inhibited [1]: eight

membrane function ([3]; at the concentrations tested): impaired
effect on XET activity in dot-blot (inhibition / promotion) [5]: did not show inhibitory effects
Compound: COC(=O)/C(=C1/OC(=O)C(c2ccccc2)=C1O)c1ccccc1 [vulpinic acid]
effect on XET activity in radiochemical assays (as summarised in the discussion) (parsley XET activity): inhibitor
number of the nine other wall enzyme activities inhibited [1]: two

IC50 (parsley XET activity; 2 h): ~400 µM
effect on XET activity in dot-blot (inhibition / promotion) [5]: promoted
effect on XET activity in dot-blot (inhibition / promotion) ([5]; listed as (−)-epigallocatechin gallate): coagulating promoter
coagulation ('type c' effect) in dot-blot ([5]; EDI collection, 0.4 mg/ml in enzyme mixture): coagulation
membrane function ([4]; higher tested concentration): impaired
Compound: O=C(O[C@@H]1Cc2c(O)cc(O)cc2O[C@@H]1c1cc(O)c(O)c(O)c1)c1cc(O)c(O)c(O)c1 [epigallocatechin gallate, (−)-epigallocatechin gallate]
effect on XET activity in radiochemical assays (as summarised in the discussion) (parsley XET activity): inhibited
number of the nine other wall enzyme activities inhibited [1]: eight
concentration inhibiting growth (PCV) without membrane impairment [2]: 40 µM
concentration inhibiting growth (PCV) without membrane impairment [6]: 870 µM

Compound: CN1CC[C@H](c2c(O)cc(O)c3c(=O)cc(-c4ccccc4Cl)oc23)[C@H](O)C1 [flavopiridol]
IC50 [7]: 145 µM

membrane function ([3]; higher tested concentration): impaired
effect on XET activity in dot-blot (inhibition / promotion) [5]: did not show inhibitory effects
membrane function ([4]; at the concentrations tested): only slightly
Compound: CC1=C(/C=C/C(C)=C/C=C/C(C)=C\C(=O)O)C(C)(C)CCC1 [13-cis-retinoic acid]
effect on XET activity, radiochemical re-screen of 206 compounds (mostly LATCA) (parsley XET activity): inhibition

IC50 (parsley XET activity; 2 h): 36 µM
IC50 (parsley XET activity; 2 h, listed as erythrosin B): ~30 µM
membrane function ([4]; at the concentrations tested): impaired
Compound: erythrosin B
effect on XET activity, radiochemical re-screen of 206 compounds (mostly LATCA) (parsley XET activity): inhibition
effect on XET activity, first radiochemical re-screen of EDI hits (parsley XET activity): inhibitory
concentration that inhibited cell expansion / culture growth (abstract) ([2]; Zea cell-suspension culture): 1 µM
concentration that inhibited cell expansion (abstract) ([6]; Rosa cell-suspension culture): 1 µM
concentration inhibiting growth (PCV) without membrane impairment [6]: 1.1 µM
